According to patent publication US5635379A, “D-2-alkyl-tryptophan and peptides containing same” (Deghenghi; Romano, priority 1990, dated 1997):
Square brackets hold non-standard residues; d marks the D form. Peptide text beside a SMILES is read from it. dTrp(2-Me) = Cc1[nH]c2ccccc2c1C[C@@H](N)C(=O)O

Assays:
[1] = tested on: GH release; experiment: GH-releasing activity i.v. in male rats anesthetized with ketamine and xilazine; assay type: in vivo, Sprague Dawley rats
Protocol: Male Sprague Dawley rats (Charles River, Calco, Italy) of 2-3 months of age were used. Rats were housed at 22 +2° C., with lighting cycle of 14 h light: 10 h dark (lights on from 06.00 to 20.00 h), at least 10 days before starting the experiments. A standard dry diet and water were available ad libitum.
Between 09.00-10.00 h rats were anesthetized with ketamine (58 mg/kg, Inoketam, VIRBAC, Milano) and xilazine (12 mg/kg, Rompun, Bayer, Milano). Thirty minutes later, a blood sample ([…]) was withdrawn from the exposed jugular vein, peptides were injected intravenously or subcutaneously, and further blood samples were collected 10, 20 and 30 minutes later.
Medium and plasma GH was measured by radioimmunoassay using materials supplied by the NIADDK Bethesda, Md. Values were expressed in term of NIASSK-rat-GH-RP-2 standard (potency 2 IU/ml), as ng/ml of medium or plasma.
The minimum detectable value of rat was 1.0 ng/ml; intra-assay variability was 6%. To avoid inter-assay variation, samples from each experiment were assayed simultaneously.

[2] = tested on: GH release; experiment: GH release in pentobarbital-anesthetized rats, s.c.; assay type: in vivo, Sprague Dawley rats
Protocol: Male Sprague Dawley rats weighing 225-250 g were divided in groups of five animals each. Rats were anesthetized with Nembutal injected intraperiteonally at 50 mg/kg, fifteen minutes prior to the first blood withdrawal taken over heparin by cardiac puncture (for determination of basal GH).
Subcutaneous injections of either HEXARELIN or GHRP-6 were given immediately after the first blood collection, and additional blood samples were collected 15 and 40 minutes later.
Measurement of rat GH was performed by a standard double antibody radioimmunoassay with reagents supplied by the National Pituitary Agency and the National Institute of Arthritis, Diabetes, and Digestive and Kidney Diseases. The standards used were NIADDK-NIH-rGH-RP-2. Statistical data were obtained with the Student's t Test at a significance level of 5%.

Cc1[nH]c2ccccc2c1C[C@@H](NC(=O)[C@@H](N)Cc1cnc[nH]1)C(=O)N[C@@H](C)C(=O)N[C@@H](Cc1c[nH]c2ccccc12)C(=O)N[C@H](Cc1ccccc1)C(=O)N[C@@H](CCCCN)C(N)=O [Example 4, His-D-2-methyl-Trp-Ala-Trp-D-Phe-Lys-NH2] (H-H[dTrp(2-Me)]AW[dF]K-NH2)
plasma GH ([1]; i.v. 150 μg/kg, 10 min): 412.7 ± 39.7 ng/mL | plasma GH ([1]; i.v. 150 μg/kg, 20 min): 132.2 ± 12.7 ng/mL | plasma GH ([1]; i.v. 150 μg/kg, 30 min): 44.0 ± 6.0 ng/mL | plasma GH ([1]; i.v. 150 μg/kg, time 0 min (before injection)): 15.0 ± 2.9 ng/mL | plasma GH ([1]; i.v. 300 μg/kg, 10 min): 438.5 ± 26.8 ng/mL | plasma GH ([1]; i.v. 300 μg/kg, 20 min): 213.8 ± 34.2 ng/mL | plasma GH ([1]; i.v. 300 μg/kg, 30 min): 48.1 ± 8.8 ng/mL | plasma GH ([1]; i.v. 300 μg/kg, time 0 min (before injection)): 13.5 ± 2.0 ng/mL | plasma GH ([1]; i.v. 600 μg/kg, 10 min): 478.3 ± 19.8 ng/mL | plasma GH ([1]; i.v. 600 μg/kg, 20 min): 164.2 ± 13.2 ng/mL | plasma GH ([1]; i.v. 600 μg/kg, 30 min): 54.5 ± 13.3 ng/mL | plasma GH ([1]; i.v. 600 μg/kg, time 0 min (before injection)): 18.4 ± 4.3 ng/mL | effect on plasma GH concentrations ([1]; i.v. 150, 300 and 600 μg/kg, 10 and 20 minutes after administration): significant increases | POST-DRUG PLASMA GH ([2]; s.c. 10 μg/kg, 0 min (basal)): 63 ± 58 ng/mL | POST-DRUG PLASMA GH ([2]; s.c. 10 μg/kg, 15 min): 95 ± 44 ng/mL | POST-DRUG PLASMA GH ([2]; s.c. 10 μg/kg, 40 min): 88 ± 29 ng/mL | POST-DRUG PLASMA GH ([2]; s.c. 25 μg/kg, 0 min (basal)): 56 ± 21 ng/mL | POST-DRUG PLASMA GH ([2]; s.c. 25 μg/kg, 15 min): 388 ± 99 ng/mL | POST-DRUG PLASMA GH ([2]; s.c. 25 μg/kg, 40 min): 100 ± 51 ng/mL | POST-DRUG PLASMA GH ([2]; s.c. 50 μg/kg, 0 min (basal)): 32 ± 16 ng/mL | POST-DRUG PLASMA GH ([2]; s.c. 50 μg/kg, 15 min): 439 ± 69 ng/mL | POST-DRUG PLASMA GH ([2]; s.c. 50 μg/kg, 40 min): 81 ± 13 ng/mL
